Reference: the supplement of paper PMC10307832

Legend:
Experiment in all cases: relative viability (nuclei count vs DMSO), 5 days (fraction); higher = more cells survive
BEN = tested on: BEN
Procedure, shortened: (§1)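 Each reported value is a median over duplicate plates. It expresses relative viability: treated-well nuclei count divided by vehicle-well nuclei count. Lung cancer cell lines in 1536-well plates were dosed by pin tool a day after seeding, alone with one drug or with a fixed anchor-drug dose plus five library-drug doses (not always all listed) in √10 steps, and nuclei were counted after 5 days.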

ChaGo-K-1 = tested on: ChaGo-K-1
Procedure, shortened: as §1

HCC-78 = tested on: HCC-78
Procedure, shortened: as §1

LC-2-ad = tested on: LC-2-ad
Procedure, shortened: as §1

LCLC-97TM1 = tested on: LCLC-97TM1
Procedure, shortened: as §1

LK-2 = tested on: LK-2
Procedure, shortened: as §1

LU99A = tested on: LU99A
Procedure, shortened: as §1

LXF-289 = tested on: LXF-289
Procedure, shortened: as §1

NCI-H1355 = tested on: NCI-H1355
Procedure, shortened: as §1

NCI-H1651 = tested on: NCI-H1651
Procedure, shortened: as §1

NCI-H1666 = tested on: NCI-H1666
Procedure, shortened: as §1

NCI-H1944 = tested on: NCI-H1944
Procedure, shortened: as §1

NCI-H1975 = tested on: NCI-H1975
Procedure, shortened: as §1

NCI-H2087 = tested on: NCI-H2087
Procedure, shortened: as §1

NCI-H2342 = tested on: NCI-H2342
Procedure, shortened: as §1

NCI-H358 = tested on: NCI-H358
Procedure, shortened: as §1

NCI-H596 = tested on: NCI-H596
Procedure, shortened: as §1

NCI-H650 = tested on: NCI-H650
Procedure, shortened: as §1

NCI-H661 = tested on: NCI-H661
Procedure, shortened: as §1

NCI-H838 = tested on: NCI-H838
Procedure, shortened: as §1

PC-3 [JPC-3] = tested on: PC-3 [JPC-3]
Procedure, shortened: as §1

SK-MES-1 = tested on: SK-MES-1
Procedure, shortened: as §1

Compound: Nc1ccn([C@@H]2O[C@H](CO)[C@@H](O)[C@@H]2O)c(=O)n1 [Cytarabine] + N=C(N)NC(=N)NCCc1ccccc1 [Phenformin] (partner 250 µM)
- relative viability (BEN; first compound 0.005 µM): 0.193
- relative viability (BEN; first compound 0.01581 µM): 0.22
- relative viability (BEN; first compound 0.05 µM): 0.244
- relative viability (BEN; first compound 0.1581 µM): 0.195
- relative viability (BEN; first compound 0.5 µM): 0.212
- relative viability (ChaGo-K-1; first compound 0.005 µM): 0.421
- relative viability (ChaGo-K-1; first compound 0.01581 µM): 0.342
- relative viability (ChaGo-K-1; first compound 0.05 µM): 0.323
- relative viability (ChaGo-K-1; first compound 0.1581 µM): 0.176
- relative viability (ChaGo-K-1; first compound 0.5 µM): 0.181
- relative viability (HCC-78; first compound 0.005 µM): 0.8
- relative viability (HCC-78; first compound 0.01581 µM): 0.629
- relative viability (HCC-78; first compound 0.05 µM): 0.466
- relative viability (HCC-78; first compound 0.1581 µM): 0.363
- relative viability (HCC-78; first compound 0.5 µM): 0.366
- relative viability (LC-2-ad; first compound 0.005 µM): 0.454
- relative viability (LC-2-ad; first compound 0.01581 µM): 0.466
- relative viability (LC-2-ad; first compound 0.05 µM): 0.49
- relative viability (LC-2-ad; first compound 0.1581 µM): 0.344
- relative viability (LC-2-ad; first compound 0.5 µM): 0.261
- relative viability (LCLC-97TM1; first compound 0.005 µM): 0.426
- relative viability (LCLC-97TM1; first compound 0.01581 µM): 0.34
- relative viability (LCLC-97TM1; first compound 0.05 µM): 0.354
- relative viability (LCLC-97TM1; first compound 0.1581 µM): 0.201
- relative viability (LCLC-97TM1; first compound 0.5 µM): 0.168
- relative viability (LK-2; first compound 0.005 µM): 0.357
- relative viability (LK-2; first compound 0.01581 µM): 0.247
- relative viability (LK-2; first compound 0.05 µM): 0.288
- relative viability (LK-2; first compound 0.1581 µM): 0.149
- relative viability (LK-2; first compound 0.5 µM): 0.196
- relative viability (LU99A; first compound 0.005 µM): 1.07
- relative viability (LU99A; first compound 0.01581 µM): 0.747
- relative viability (LU99A; first compound 0.05 µM): 0.871
- relative viability (LU99A; first compound 0.1581 µM): 0.775
- relative viability (LU99A; first compound 0.5 µM): 0.808
- relative viability (LXF-289; first compound 0.005 µM): 0.413
- relative viability (LXF-289; first compound 0.01581 µM): 0.406
- relative viability (LXF-289; first compound 0.05 µM): 0.341
- relative viability (LXF-289; first compound 0.1581 µM): 0.129
- relative viability (LXF-289; first compound 0.5 µM): 0.0821
- relative viability (NCI-H1355; first compound 0.005 µM): 0.353
- relative viability (NCI-H1355; first compound 0.01581 µM): 0.428
- relative viability (NCI-H1355; first compound 0.05 µM): 0.382
- relative viability (NCI-H1355; first compound 0.1581 µM): 0.254
- relative viability (NCI-H1355; first compound 0.5 µM): 0.261
- relative viability (NCI-H1651; first compound 0.005 µM): 0.304
- relative viability (NCI-H1651; first compound 0.01581 µM): 0.346
- relative viability (NCI-H1651; first compound 0.05 µM): 0.319
- relative viability (NCI-H1651; first compound 0.1581 µM): 0.2
- relative viability (NCI-H1651; first compound 0.5 µM): 0.18
- relative viability (NCI-H1666; first compound 0.005 µM): 0.545
- relative viability (NCI-H1666; first compound 0.01581 µM): 0.669
- relative viability (NCI-H1666; first compound 0.05 µM): 0.466
- relative viability (NCI-H1666; first compound 0.1581 µM): 0.401
- relative viability (NCI-H1666; first compound 0.5 µM): 0.396
- relative viability (NCI-H1944; first compound 0.005 µM): 0.166
- relative viability (NCI-H1944; first compound 0.01581 µM): 0.184
- relative viability (NCI-H1944; first compound 0.05 µM): 0.14
- relative viability (NCI-H1944; first compound 0.1581 µM): 0.106
- relative viability (NCI-H1944; first compound 0.5 µM): 0.103
- relative viability (NCI-H1975; first compound 0.005 µM): 0.331
- relative viability (NCI-H1975; first compound 0.01581 µM): 0.344
- relative viability (NCI-H1975; first compound 0.05 µM): 0.31
- relative viability (NCI-H1975; first compound 0.1581 µM): 0.193
- relative viability (NCI-H1975; first compound 0.5 µM): 0.177
- relative viability (NCI-H2087; first compound 0.005 µM): 0.384
- relative viability (NCI-H2087; first compound 0.01581 µM): 0.308
- relative viability (NCI-H2087; first compound 0.05 µM): 0.373
- relative viability (NCI-H2087; first compound 0.1581 µM): 0.229
- relative viability (NCI-H2087; first compound 0.5 µM): 0.131
- relative viability (NCI-H2342; first compound 0.005 µM): 0.543
- relative viability (NCI-H2342; first compound 0.01581 µM): 0.57
- relative viability (NCI-H2342; first compound 0.05 µM): 0.482
- relative viability (NCI-H2342; first compound 0.1581 µM): 0.449
- relative viability (NCI-H2342; first compound 0.5 µM): 0.404
- relative viability (NCI-H358; first compound 0.005 µM): 0.235
- relative viability (NCI-H358; first compound 0.01581 µM): 0.2
- relative viability (NCI-H358; first compound 0.05 µM): 0.222
- relative viability (NCI-H358; first compound 0.1581 µM): 0.0765
- relative viability (NCI-H358; first compound 0.5 µM): 0.076
- relative viability (NCI-H596; first compound 0.005 µM): 0.801
- relative viability (NCI-H596; first compound 0.01581 µM): 0.613
- relative viability (NCI-H596; first compound 0.05 µM): 0.694
- relative viability (NCI-H596; first compound 0.1581 µM): 0.624
- relative viability (NCI-H596; first compound 0.5 µM): 0.447
- relative viability (NCI-H650; first compound 0.005 µM): 0.448
- relative viability (NCI-H650; first compound 0.01581 µM): 0.33
- relative viability (NCI-H650; first compound 0.05 µM): 0.185
- relative viability (NCI-H650; first compound 0.1581 µM): 0.194
- relative viability (NCI-H650; first compound 0.5 µM): 0.187
- relative viability (NCI-H661; first compound 0.005 µM): 0.264
- relative viability (NCI-H661; first compound 0.01581 µM): 0.254
- relative viability (NCI-H661; first compound 0.05 µM): 0.239
- relative viability (NCI-H661; first compound 0.1581 µM): 0.23
- relative viability (NCI-H661; first compound 0.5 µM): 0.237
- relative viability (NCI-H838; first compound 0.005 µM): 0.482
- relative viability (NCI-H838; first compound 0.01581 µM): 0.532
- relative viability (NCI-H838; first compound 0.05 µM): 0.422
- relative viability (NCI-H838; first compound 0.1581 µM): 0.241
- relative viability (NCI-H838; first compound 0.5 µM): 0.201
- relative viability (PC-3 [JPC-3]; first compound 0.005 µM): 0.493
- relative viability (PC-3 [JPC-3]; first compound 0.01581 µM): 0.468
- relative viability (PC-3 [JPC-3]; first compound 0.05 µM): 0.418
- relative viability (PC-3 [JPC-3]; first compound 0.1581 µM): 0.346
- relative viability (PC-3 [JPC-3]; first compound 0.5 µM): 0.358
- relative viability (SK-MES-1; first compound 0.005 µM): 0.44
- relative viability (SK-MES-1; first compound 0.01581 µM): 0.389
- relative viability (SK-MES-1; first compound 0.05 µM): 0.212
- relative viability (SK-MES-1; first compound 0.1581 µM): 0.206
- relative viability (SK-MES-1; first compound 0.5 µM): 0.178
